This note sets out measurements from US9492416B2, “Use of caftaric acid and lactic bacterium in food supplement for regulating skin pigmentation” (Nestec S.A., priority 2010, dated 2016).

This assay relates to B16 murine melanocyte cell line. Put plainly: Production of melanin by B16 murine melanocyte cell line. Particulars: B16 melanocytes, 72 hours; Kojic acid at 400 μg/mL. It counts as cell-based. How it is done: In order to evaluate the potential beneficial effect of ingredients towards skin de- or pro-pigmentation we used 2D culture of murine melanocytes (B16) and we performed 2 tests: 1—assessment of melanin production and 2—assessment of tyrosinase production.
1. The Cell Culture Conditions. • B16 cells were cultured in DMEM 1 g/L glucose without phenol red supplemented with 10% foetal calf serum, in a humidified chamber at 37° C. and containing 5% CO2.
2. The Production of Melanin by B16 Murine Melanocyte Cell Line. • Cells were incubated with the selected ingredients or the test references (Kojic acid at 400 μg/mL) for 72 hours, in the presence or absence of NDP-MSH an analog of MSH. The total quantity of melanin (extracellular and intracellular) was evaluated by measurement of the optical density at 405 nm of each sample against melanin standards in presence or in absence of NDP-MSH.
Caftaric acid has been pre-treated with La-1 [(spray dried culture Lactobacillus Johnsonii CNCM I-1225, 1.19E10 cfu/g) for 24 hours in a thermomixer at 40° C., under shaking conditions. After incubation, samples have been centrifuged 5 minutes at 3000 g. After this treatment the probiotic as such is not present anymore in the sample however the presence of its metabolites can't be excluded.

With `O=c1cc(CO)occ1O` [Kojic acid], the “melanin production (in words)” value was “decrease in melanin production”.
